Data published in article PMC10451632, “Site Mutation Improves the Expression and Antimicrobial Properties of Fungal Defense” (Antibiotics, 2023).
“Also recorded” adds a separate entry of the source. Bridge positions count the residues as written; N and C are the ends. Peptide text beside a SMILES is read from it.

Legend:
[1] = pH stability, MIC read-out; type: physicochemical; conditions: pH from 2 to 10, buffers, 37 °C, 4 h, MIC read-out after dilution, triplicate
Protocol: PN7 dissolved in physiological saline solution was prepared into mother liquor with a concentration of 1280 μg/mL and incubated at different temperatures for 1 h. PN7 was dissolved in different pH buffers at 37 °C for 4 h. After double gradient dilution, MIC assays were used to detect the change in antibacterial activity.

S. aureus ATCC 43300 [2] = experiment: Salt stability, MIC read-out; type: cell-based, Staphylococcus aureus
Protocol: The influence of ions on PN7 activity was determined in two ways.
The first method of operation: PN7 was prepared into 1280 μg/mL mother liquor supplemented with 50, 100, 200, 300, and 500 mM NaCl (or KCl, MgCl2, CaCl2), then was diluted twice gradient by ddH2O. Then, 10 μL was added into 90 μL bacterial solution and cultured for 16–18 h to determine the MIC.
The second method of operation: 10 μL peptide solution and 10 μL NaCl (or KCl, MgCl2, CaCl2) solution with different concentrations were added to 80 μL bacterial solution. The final concentration of ions in the whole system was 50, 100, 150, 200, and 250 mM. The MIC against S. aureus ATCC 43300 was determined.

[3] = Stability in simulated gastric fluid, MIC read-out; type: in vitro ADME
Protocol: (§1) The stability of peptide PN7 in SGF, SIF, and 25% or 50% mouse serum was carried out as previously described. A final concentration of 1280 μg/mL PN7 was prepared and incubated at 37 °C and then diluted twice. The MIC was determined.

[4] = Stability in simulated intestinal fluid, MIC read-out; type: in vitro ADME
Protocol: as §1

[5] = Serum stability, MIC read-out; type: in vitro ADME; conditions: 25% or 50% mouse serum, 1280 μg/mL PN7, 37 °C, triplicate
Protocol: as §1

S. aureus ATCC 43300 [6] = experiment: Time-killing curves; type: cell-based, Staphylococcus aureus; conditions: for reduction of bacterial counts during the first two hours: initial inoculum 5.15 Log10 CFU/mL, MHB, 37 °C, 250 rpm, triplicate
Protocol: S. aureus ATCC 43300 was cultured to the logarithmic stage, MHB medium was used for adjusting the concentration of bacterial suspension, and PN7 (1×, 2× and 4× MIC), Plectasin (1×, 2× and 4× MIC) and 2× MIC vancomycin (the MIC was 1 μg/mL) were added into the suspensions containing 10^5 CFU/mL bacteria (after the count of viable bacteria detection, the initial inoculation amount was 5.15 Log10 CFU/mL), cultured at 37 °C and 250 rpm. A 100 CFU/mL is considered the detection limit. […] In contrast, the count was reduced by 1.6 Log10 CFU/mL after treatment with 2× MIC vancomycin, an approximately 66% population decrease of target pathogens compared with the PN7 treatment group at the same time point of the second hour. After 4 h, the colony number of the peptide treatment group was almost 0, while that of the vancomycin treatment group was 0 after 8 h, at 4 h later than the PN7 treatment. At 24 h, the number of colonies of only 1× MIC Plectasin treatment group rebounded, while no such phenomenon occurred in the other treatment groups.
S. aureus ATCC 43300 was cultured to the logarithmic stage. MHB medium adjusted the concentration of bacterial suspension, and PN7 (1×, 2× and 4× MIC) was added into the suspensions containing 10^5 CFU/mL bacteria, cultured at 37 °C and 250 rpm. 1×, 2×, 4× MIC Plectasin and 2× MIC vancomycin were used as positive controls, and the group treated without antibiotics was used as the blank controls. Then, 100 μL samples were taken at different time points and were continuously diluted and coated on MHA medium for colony counting. A 100 CFU/mL is considered the detection limit.

S. aureus ATCC 43300 [7] = experiment: Post antibiotic effect (PAE); type: cell-based, Staphylococcus aureus
Excerpt: The post-antibiotic effect reflects the inhibitory effect on the growth of pathogenic bacteria after short contact with drugs, which is related to the strength of the bactericidal activity of drugs. The test method of the PAE of PN7 against S. aureus ATCC 43300 refers to the descriptions in previous studies.

S. aureus ATCC 43300 [8] = experiment: Membrane permeability, PI staining by FACS; type: cell-based, Staphylococcus aureus; conditions: 2× MIC, 10^8 CFU/mL, 37 °C
Protocol: Figure 8 In vitro antimicrobial analysis of PN7. (A): Time-kill curve of PN7, Plectasin, and vancomycin against S. aureus ATCC. All experiments were performed in triplicate. (B): The PAE of 1×, 2× and 4× MIC of PN7 and vancomycin against S. aureus ATCC 43300 (the MIC values of PN7 and vancomycin against S. aureus ATCC 43300 were 8 μg/mL and 1μg/mL, respectively). All experiments were performed in triplicate. (C): The morphological influence of PN7 on S. aureus ATCC 43300 was observed by SEM. (D,E): The effects of PN7 (D) and Plectasin (E)) on membrane permeability were analyzed by FACS. The logarithmic phase S. aureus ATCC 43300 cells (10^8 CFU/mL) were incubated with or without 2× MIC peptide solutions at 37 °C at different times. All experiments were performed in triplicate. Ple stands for the Plectasin treatment group, Van stands for the vancomycin treatment group, and CK stands for the untreated group. TEXT PRINTED IN THE PICTURE: (D) PN7: 34.4% (2×; 90min); 31.2% (2×; 75min); 30.4% (2×; 60min); 19.2% (2×; 45min); 16.7% (2×; 30min); 1.94% (2×; 15min) | (E) Ple: 32.0% (2×; 90min); 27.4% (2×; 75min); 25.2% (2×; 60min); 12.8% (2×; 45min); 12.0% (2×; 30min); 2.11% (2×; 15min) DOUBTS OF THE COPYIST ABOUT THIS PICTURE: Panels D and E: the picture prints no measure for the percentages, only labels such as "2×PN7-90min: 34.4%" / Panels D and E: "CK: 0.54%" is the untreated control, not a substance, and was left out
The fluorescent dye propidium iodide (PI; Solarbio, Beijing, China) was used to detect the effect of PN7 on the membrane permeability of Staphylococcus aureus. The test method refers to the descriptions in previous studies.

[9] = 1280 μg/mL PN7, 37 °C, then two-fold dilution, triplicate

Structure (SMILES): CC[C@H](C)[C@@H]1NC(=O)[C@H](CO)NC(=O)[C@H](CCCCN)NC(=O)[C@@H]2CSSC[C@@H](C(=O)N[C@@H](Cc3ccc(O)cc3)C(=O)O)NC(=O)[C@H](CCCCN)NC(=O)[C@@H]3CSSC[C@H](NC(=O)[C@H](CCCNC(=N)N)NC(=O)CNC(=O)[C@H](CC(=O)O)NC(=O)[C@H](CC(=O)O)NC(=O)[C@H](CCC(=O)O)NC(=O)[C@H](Cc4ccc(O)cc4)NC(=O)[C@H](Cc4c[nH]c5ccccc45)NC(=O)[C@@H]4CCCN4C(=O)CNC(=O)[C@H](CC(N)=O)NC(=O)[C@@H](NC(=O)CNC(=O)[C@H](Cc4ccccc4)NC(=O)CN)CSSC[C@H](NC(=O)[C@H](Cc4ccc(O)cc4)NC(=O)CNC(=O)CNC(=O)[C@H](CCCCN)NC(=O)[C@H](Cc4ccc(O)cc4)NC(=O)CNC(=O)[C@H](CCCCN)NC1=O)C(=O)N[C@@H](C)C(=O)N[C@@H](CCCCN)C(=O)NCC(=O)NCC(=O)N[C@@H](Cc1ccccc1)C(=O)N[C@@H](C(C)C)C(=O)N3)C(=O)N[C@@H](Cc1c[nH]cn1)C(=O)N[C@@H](CC(N)=O)C(=O)N[C@@H](Cc1c[nH]cn1)C(=O)N2 [PN7] (H-GFGCNGPWYEDDGRCHNHCKSIKGYKGGYCAKGGFVCKCY-OH; disulfide 4-30, 15-37, 19-39 (inferred); N-terminus and C-terminus assumed)
- pH stability (antibacterial activity) [1]: stable
- influence of monovalent cations (Na+ and K+) on activity (S. aureus ATCC 43300 [2]; NaCl or KCl, MIC against S. aureus ATCC 43300): no influence
- MIC value after incubation with different ions (S. aureus ATCC 43300 [2]; mother liquor with 50–500 mM salt, then diluted with ddH2O): did not change
- activity after incubation with simulated gastric juice (SGF) [3, 9]: conserved full activity
- resistance to pepsin ([3]; Figure 7E): resistant to pepsin
- activity after incubation with simulated intestinal fluid (SIF) [4, 9]: abolished the activity
- sensitivity to trypsin ([4]; Figure 7E): sensitive to trypsin
- serum stability [5]: strong resistance to the serum effect; also recorded: stable in serum
- reduction of bacterial counts during the first two hours (S. aureus ATCC 43300 [6]; 1× MIC): 2.25 Log10 CFU/mL
- reduction of bacterial counts during the first two hours (S. aureus ATCC 43300 [6]; 2× MIC): 2.42 Log10 CFU/mL
- reduction of bacterial counts during the first two hours (S. aureus ATCC 43300 [6]; 4× MIC): 2.72 Log10 CFU/mL
- time to kill 99% of S. aureus ATCC 43300 (S. aureus ATCC 43300 [6]; time-kill, 2× MIC): ≤ 2 h
- gap of PAE, PN7 versus vancomycin (S. aureus ATCC 43300 [7]; 1× MIC): 12 times
- gap of PAE, PN7 versus vancomycin (S. aureus ATCC 43300 [7]; 2× MIC): 3.648 times
- gap of PAE, PN7 versus vancomycin (S. aureus ATCC 43300 [7]; 4× MIC): 3.513 times
- PI-staining percentage of cells (S. aureus ATCC 43300 [8]; 30 min): 16.7%
- PI-staining percentage of cells (S. aureus ATCC 43300 [8]; 60 min): 30.4%
- PI-staining percentage of cells (S. aureus ATCC 43300 [8]; 90 min): 34.4%
